The values below come from patent US10344060B2 (priority 2013, dated 2019).

This assay deals with hNav1.7 (Homo sapiens, UniProt Q15858). Description: cell-based. In kind it is cell-based. To be noted: ratio of PX tonic IC50 values; Table 11.
Sequence of hNav1.7 (Q15858 whole entry): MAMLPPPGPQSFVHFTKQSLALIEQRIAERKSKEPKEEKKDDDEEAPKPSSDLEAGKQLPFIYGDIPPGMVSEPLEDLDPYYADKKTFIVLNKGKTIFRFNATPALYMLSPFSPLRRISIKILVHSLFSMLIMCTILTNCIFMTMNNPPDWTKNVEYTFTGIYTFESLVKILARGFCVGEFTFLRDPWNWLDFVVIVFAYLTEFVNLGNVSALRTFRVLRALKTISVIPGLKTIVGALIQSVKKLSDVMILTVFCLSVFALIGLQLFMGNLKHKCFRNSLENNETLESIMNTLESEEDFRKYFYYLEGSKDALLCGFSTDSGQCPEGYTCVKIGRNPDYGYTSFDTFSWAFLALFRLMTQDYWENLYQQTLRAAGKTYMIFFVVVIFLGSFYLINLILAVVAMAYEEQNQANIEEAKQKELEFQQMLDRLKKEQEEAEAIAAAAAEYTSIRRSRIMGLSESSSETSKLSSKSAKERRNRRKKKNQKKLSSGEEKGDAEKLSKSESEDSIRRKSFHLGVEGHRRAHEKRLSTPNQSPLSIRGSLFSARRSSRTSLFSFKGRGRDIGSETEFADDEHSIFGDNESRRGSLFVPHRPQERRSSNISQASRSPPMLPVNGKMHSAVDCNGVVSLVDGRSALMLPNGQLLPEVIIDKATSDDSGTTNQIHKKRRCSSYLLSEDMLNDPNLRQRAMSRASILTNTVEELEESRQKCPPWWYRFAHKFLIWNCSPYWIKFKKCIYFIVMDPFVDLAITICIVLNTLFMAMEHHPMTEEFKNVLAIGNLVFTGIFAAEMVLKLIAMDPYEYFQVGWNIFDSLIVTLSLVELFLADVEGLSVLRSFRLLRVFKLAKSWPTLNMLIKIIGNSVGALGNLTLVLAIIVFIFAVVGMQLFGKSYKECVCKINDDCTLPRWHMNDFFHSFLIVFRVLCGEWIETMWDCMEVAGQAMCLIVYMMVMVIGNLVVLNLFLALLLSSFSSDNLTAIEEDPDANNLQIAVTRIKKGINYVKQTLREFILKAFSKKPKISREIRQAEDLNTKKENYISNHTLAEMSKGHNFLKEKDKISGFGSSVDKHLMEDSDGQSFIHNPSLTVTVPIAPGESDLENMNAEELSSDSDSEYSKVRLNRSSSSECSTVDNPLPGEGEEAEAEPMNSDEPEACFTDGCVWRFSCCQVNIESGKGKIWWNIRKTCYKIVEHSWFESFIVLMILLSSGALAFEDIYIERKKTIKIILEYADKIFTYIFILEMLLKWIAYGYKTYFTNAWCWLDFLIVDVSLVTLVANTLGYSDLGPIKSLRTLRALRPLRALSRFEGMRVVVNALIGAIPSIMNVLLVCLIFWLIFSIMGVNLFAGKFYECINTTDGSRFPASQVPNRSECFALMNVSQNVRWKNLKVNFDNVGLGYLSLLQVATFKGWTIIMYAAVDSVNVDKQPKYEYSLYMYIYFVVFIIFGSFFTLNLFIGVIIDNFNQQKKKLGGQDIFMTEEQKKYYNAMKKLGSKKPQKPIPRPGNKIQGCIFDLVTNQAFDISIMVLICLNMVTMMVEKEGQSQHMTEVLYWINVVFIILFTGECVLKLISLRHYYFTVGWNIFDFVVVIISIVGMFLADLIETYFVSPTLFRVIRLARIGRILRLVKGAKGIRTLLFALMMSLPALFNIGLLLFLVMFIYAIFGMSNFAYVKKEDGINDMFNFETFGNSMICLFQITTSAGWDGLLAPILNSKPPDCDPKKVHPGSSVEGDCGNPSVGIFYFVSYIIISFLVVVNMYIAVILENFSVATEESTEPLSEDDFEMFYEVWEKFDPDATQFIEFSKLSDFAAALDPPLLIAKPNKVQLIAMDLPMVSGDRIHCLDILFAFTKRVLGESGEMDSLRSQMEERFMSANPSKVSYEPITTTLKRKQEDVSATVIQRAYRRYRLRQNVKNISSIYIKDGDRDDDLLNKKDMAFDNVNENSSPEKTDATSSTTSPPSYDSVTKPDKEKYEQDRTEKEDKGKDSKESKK

As for `CCCC[C@H](NC(=O)[C@H](Cc1ccc(O)cc1)NC(=O)[C@H](CCCCN)NC(=O)[C@H](CCCNC(=N)N)NC(=O)[C@@H]1CSSC[C@@H]2NC(=O)[C@H](C)NC(=O)[C@H](CCCNC(=N)N)NC(=O)[C@H](CCCCN)NC(=O)[C@H](CO)NC(=O)[C@H](CC(=O)O)NC(=O)[C@@H]3CSSC[C@H](NC(=O)[C@H](CCC(=O)O)NC(=O)[C@H](CC(C)C)NC(=O)CNC(=O)[C@H](CCC(=O)O)NC(=O)[C@H](CSSC[C@H](NC(=O)[C@@H](N)Cc4ccc(O)cc4)C(=O)N[C@@H](CCC(N)=O)C(=O)N[C@@H](CCCCN)C(=O)N[C@@H](Cc4c[nH]c5ccccc45)C(=O)N[C@@H](CCSC)C(=O)N[C@@H](Cc4c[nH]c5ccccc45)C(=O)N[C@@H]([C@@H](C)O)C(=O)N3)NC2=O)C(=O)N[C@@H](CCCCN)C(=O)N[C@@H](CC(C)C)C(=O)N[C@@H](Cc2c[nH]c3ccccc23)C(=O)N1)C(N)=O` [compound 239], the Nav1.4/Nav1.7 is given as 127 and the Nav1.5/Nav1.7 is listed as above 1575.
As for `CC[C@H](C)[C@H](NC(=O)[C@H](Cc1ccc(O)cc1)NC(=O)[C@H](CCCCN)NC(=O)[C@H](CCCNC(=N)N)NC(=O)[C@@H]1CSSC[C@@H]2NC(=O)[C@H](C)NC(=O)[C@H](CCCNC(=N)N)NC(=O)[C@H](CCCCN)NC(=O)[C@H](CO)NC(=O)[C@H](CC(=O)O)NC(=O)[C@@H]3CSSC[C@H](NC(=O)[C@H](CCC(=O)O)NC(=O)[C@H](CC(C)C)NC(=O)CNC(=O)[C@H](CCC(=O)O)NC(=O)[C@H](CSSC[C@H](NC(=O)[C@@H](N)CCC(=O)O)C(=O)N[C@@H](CCC(N)=O)C(=O)N[C@@H](CCCCN)C(=O)N[C@@H](Cc4c[nH]c5ccccc45)C(=O)N[C@@H](CCSC)C(=O)N[C@@H](Cc4c[nH]c5ccccc45)C(=O)N[C@@H]([C@@H](C)O)C(=O)N3)NC2=O)C(=O)N[C@@H](CCCCN)C(=O)N[C@@H](CC(C)C)C(=O)N[C@@H](Cc2c[nH]c3ccccc23)C(=O)N1)C(N)=O` [compound 277], the Nav1.4/Nav1.7 was found to be 171 and the Nav1.5/Nav1.7 is above 1818.
The matching figures for `CCCC[C@@H]1NC(=O)[C@H](Cc2c[nH]c3ccccc23)NC(=O)[C@H](CCCCN)NC(=O)[C@H](CCC(N)=O)NC(=O)[C@@H](NC(=O)[C@H](Cc2ccc(O)cc2)NC(=O)[C@@H](N)CC(C)C)CSSC[C@@H]2NC(=O)[C@@H]3CSSC[C@@H](C(=O)N[C@@H](CCCNC(=N)N)C(=O)N[C@@H](CCCCN)C(=O)N[C@H](C(=O)N[C@H](C(N)=O)[C@@H](C)CC)[C@@H](C)CC)NC(=O)[C@H](Cc4c[nH]c5ccccc45)NC(=O)[C@H](CC(C)C)NC(=O)[C@H](CCCCN)NC(=O)[C@H](CSSC[C@H](NC(=O)[C@H]([C@@H](C)O)NC(=O)[C@H](Cc4c[nH]c5ccccc45)NC1=O)C(=O)N[C@@H](CC(=O)O)C(=O)N[C@@H](CO)C(=O)N[C@@H](CCCCN)C(=O)N[C@@H](CCCNC(=N)N)C(=O)N[C@@H](C)C(=O)N3)NC(=O)[C@H](CCCNC(=N)N)NC(=O)[C@H](CC(C)C)NC(=O)CNC(=O)[C@H](CCC(=O)O)NC2=O` [compound 361]: 0 and 0.
As to `CCCC[C@@H]1NC(=O)[C@H](Cc2c[nH]c3ccccc23)NC(=O)[C@H](CCCCN)NC(=O)[C@H](CCC(N)=O)NC(=O)[C@@H](NC(=O)[C@H](Cc2ccc(O)cc2)NC(=O)[C@@H](N)CCC)CSSC[C@@H]2NC(=O)[C@@H]3CSSC[C@@H](C(=O)N[C@@H](CCCNC(=N)N)C(=O)N[C@@H](CCCCN)C(=O)N[C@H](C(=O)N[C@H](C(N)=O)[C@@H](C)CC)[C@@H](C)CC)NC(=O)[C@H](Cc4c[nH]c5ccccc45)NC(=O)[C@H](CC(C)C)NC(=O)[C@H](CCCCN)NC(=O)[C@H](CSSC[C@H](NC(=O)[C@H]([C@@H](C)O)NC(=O)[C@H](Cc4c[nH]c5ccccc45)NC1=O)C(=O)N[C@@H](CC(=O)O)C(=O)N[C@@H](CO)C(=O)N[C@@H](CCCCN)C(=O)N[C@@H](CCCNC(=N)N)C(=O)N[C@@H](C)C(=O)N3)NC(=O)[C@H](CCCNC(=N)N)NC(=O)[C@H](CC(C)C)NC(=O)CNC(=O)[C@H](CCC(=O)O)NC2=O` [compound 369], the Nav1.4/Nav1.7 is listed as 552 and the Nav1.5/Nav1.7 was found to be 23418.
The matching figures for `CCCC[C@@H]1NC(=O)[C@H](Cc2c[nH]c3ccccc23)NC(=O)[C@H](CCCCN)NC(=O)[C@H](CCC(N)=O)NC(=O)[C@@H](NC(=O)[C@H](Cc2ccc(O)cc2)NC(=O)[C@@H](N)CCCC)CSSC[C@@H]2NC(=O)[C@@H]3CSSC[C@@H](C(=O)N[C@@H](CCCNC(=N)N)C(=O)N[C@@H](CCCCN)C(=O)N[C@H](C(=O)N[C@H](C(N)=O)[C@@H](C)CC)[C@@H](C)CC)NC(=O)[C@H](Cc4c[nH]c5ccccc45)NC(=O)[C@H](CC(C)C)NC(=O)[C@H](CCCCN)NC(=O)[C@H](CSSC[C@H](NC(=O)[C@H]([C@@H](C)O)NC(=O)[C@H](Cc4c[nH]c5ccccc45)NC1=O)C(=O)N[C@@H](CC(=O)O)C(=O)N[C@@H](CO)C(=O)N[C@@H](CCCCN)C(=O)N[C@@H](CCCNC(=N)N)C(=O)N[C@@H](C)C(=O)N3)NC(=O)[C@H](CCCNC(=N)N)NC(=O)[C@H](CC(C)C)NC(=O)CNC(=O)[C@H](CCC(=O)O)NC2=O` [compound 370]: 21 and 3729.
On to `CCCC[C@@H]1NC(=O)[C@H](Cc2c[nH]c3ccccc23)NC(=O)[C@H](CCCCN)NC(=O)[C@H](CCC(N)=O)NC(=O)[C@@H](NC(=O)[C@H](Cc2ccc(O)cc2)NC(=O)[C@@H](C)N)CSSC[C@@H]2NC(=O)[C@@H]3CSSC[C@@H](C(=O)N[C@@H](CCCNC(=N)N)C(=O)N[C@@H](CCCCN)C(=O)N[C@H](C(=O)N[C@H](C(N)=O)[C@@H](C)CC)[C@@H](C)CC)NC(=O)[C@H](Cc4c[nH]c5ccccc45)NC(=O)[C@H](CC(C)C)NC(=O)[C@H](CCCCN)NC(=O)[C@H](CSSC[C@H](NC(=O)[C@H]([C@@H](C)O)NC(=O)[C@H](Cc4c[nH]c5ccccc45)NC1=O)C(=O)N[C@@H](CC(=O)O)C(=O)N[C@@H](CO)C(=O)N[C@@H](CCCCN)C(=O)N[C@@H](CCCNC(=N)N)C(=O)N[C@@H](C)C(=O)N3)NC(=O)[C@H](CCCNC(=N)N)NC(=O)[C@H](CC(C)C)NC(=O)CNC(=O)[C@H](CCC(=O)O)NC2=O` [compound 372], for which the Nav1.4/Nav1.7 is 5 and the Nav1.5/Nav1.7 stood at 764.
The matching figures for `CCCC[C@@H]1NC(=O)[C@H](Cc2c[nH]c3ccccc23)NC(=O)[C@H](CCCCN)NC(=O)[C@H](CCC(N)=O)NC(=O)[C@@H](NC(=O)[C@H](Cc2ccc(O)cc2)NC(=O)[C@H](N)CC(C)C)CSSC[C@@H]2NC(=O)[C@@H]3CSSC[C@@H](C(=O)N[C@@H](CCCNC(=N)N)C(=O)N[C@@H](CCCCN)C(=O)N[C@H](C(=O)N[C@H](C(N)=O)[C@@H](C)CC)[C@@H](C)CC)NC(=O)[C@H](Cc4c[nH]c5ccccc45)NC(=O)[C@H](CC(C)C)NC(=O)[C@H](CCCCN)NC(=O)[C@H](CSSC[C@H](NC(=O)[C@H]([C@@H](C)O)NC(=O)[C@H](Cc4c[nH]c5ccccc45)NC1=O)C(=O)N[C@@H](CC(=O)O)C(=O)N[C@@H](CO)C(=O)N[C@@H](CCCCN)C(=O)N[C@@H](CCCNC(=N)N)C(=O)N[C@@H](C)C(=O)N3)NC(=O)[C@H](CCCNC(=N)N)NC(=O)[C@H](CC(C)C)NC(=O)CNC(=O)[C@H](CCC(=O)O)NC2=O` [compound 373]: 190 and 2704.
The matching figures for `CCCC[C@@H]1NC(=O)[C@H](Cc2c[nH]c3ccccc23)NC(=O)[C@H](CCCCN)NC(=O)[C@H](CCC(N)=O)NC(=O)[C@@H](NC(=O)[C@H](Cc2ccc(O)cc2)NC(=O)[C@H](N)Cc2ccccc2)CSSC[C@@H]2NC(=O)[C@@H]3CSSC[C@@H](C(=O)N[C@@H](CCCNC(=N)N)C(=O)N[C@@H](CCCCN)C(=O)N[C@H](C(=O)N[C@H](C(N)=O)[C@@H](C)CC)[C@@H](C)CC)NC(=O)[C@H](Cc4c[nH]c5ccccc45)NC(=O)[C@H](CC(C)C)NC(=O)[C@H](CCCCN)NC(=O)[C@H](CSSC[C@H](NC(=O)[C@H]([C@@H](C)O)NC(=O)[C@H](Cc4c[nH]c5ccccc45)NC1=O)C(=O)N[C@@H](CC(=O)O)C(=O)N[C@@H](CO)C(=O)N[C@@H](CCCCN)C(=O)N[C@@H](CCCNC(=N)N)C(=O)N[C@@H](C)C(=O)N3)NC(=O)[C@H](CCCNC(=N)N)NC(=O)[C@H](CC(C)C)NC(=O)CNC(=O)[C@H](CCC(=O)O)NC2=O` [compound 374]: 19 and 1757.
With `CCCC[C@@H]1NC(=O)[C@H](Cc2c[nH]c3ccccc23)NC(=O)[C@H](CCCCN)NC(=O)[C@H](CCC(N)=O)NC(=O)[C@@H](NC(=O)[C@H](Cc2ccc(O)cc2)NC(=O)CCN)CSSC[C@@H]2NC(=O)[C@@H]3CSSC[C@@H](C(=O)N[C@@H](CCCNC(=N)N)C(=O)N[C@@H](CCCCN)C(=O)N[C@H](C(=O)N[C@H](C(N)=O)[C@@H](C)CC)[C@@H](C)CC)NC(=O)[C@H](Cc4c[nH]c5ccccc45)NC(=O)[C@H](CC(C)C)NC(=O)[C@H](CCCCN)NC(=O)[C@H](CSSC[C@H](NC(=O)[C@H]([C@@H](C)O)NC(=O)[C@H](Cc4c[nH]c5ccccc45)NC1=O)C(=O)N[C@@H](CC(=O)O)C(=O)N[C@@H](CO)C(=O)N[C@@H](CCCCN)C(=O)N[C@@H](CCCNC(=N)N)C(=O)N[C@@H](C)C(=O)N3)NC(=O)[C@H](CCCNC(=N)N)NC(=O)[C@H](CC(C)C)NC(=O)CNC(=O)[C@H](CCC(=O)O)NC2=O` [compound 376], the Nav1.4/Nav1.7 was 3 and the Nav1.5/Nav1.7 was 731.
The matching figures for `CCCC[C@@H]1NC(=O)[C@H](Cc2c[nH]c3ccccc23)NC(=O)[C@H](CCCCN)NC(=O)[C@H](CCC(N)=O)NC(=O)[C@@H](NC(=O)[C@H](Cc2ccc(O)cc2)NC(=O)[C@@H](N)CCC(C)C)CSSC[C@@H]2NC(=O)[C@@H]3CSSC[C@@H](C(=O)N[C@@H](CCCNC(=N)N)C(=O)N[C@@H](CCCCN)C(=O)N[C@H](C(=O)N[C@H](C(N)=O)[C@@H](C)CC)[C@@H](C)CC)NC(=O)[C@H](Cc4c[nH]c5ccccc45)NC(=O)[C@H](CC(C)C)NC(=O)[C@H](CCCCN)NC(=O)[C@H](CSSC[C@H](NC(=O)[C@H]([C@@H](C)O)NC(=O)[C@H](Cc4c[nH]c5ccccc45)NC1=O)C(=O)N[C@@H](CC(=O)O)C(=O)N[C@@H](CO)C(=O)N[C@@H](CCCCN)C(=O)N[C@@H](CCCNC(=N)N)C(=O)N[C@@H](C)C(=O)N3)NC(=O)[C@H](CCCNC(=N)N)NC(=O)[C@H](CC(C)C)NC(=O)CNC(=O)[C@H](CCC(=O)O)NC2=O` [compound 377]: 13 and 615.
